Paper PMC10927554, “An improved pathway for autonomous bioluminescence imaging in eukaryotes” (Nature Methods, 2024)

Target: T1, nnLuz (Neonothopanus nambi, UniProt A0A3G9JYH7, I3S/N4T/F11L/I63T/T99P/T192S/A199P)
T1 construct: gene luz; HiBiT-tag fusion, expressed in yeast Pichia pastoris GS115, clarified lysate; codon-optimized synthetic gene
Assay: luminescence, Michaelis-Menten fit, HiBiT-normalized
Assay type: biochemical
Settings: yeast lysate; 0.2 M sodium phosphate, 0.5 M Na2SO4, pH 8; Fln 0.0244-50 uM; DDM, thioglycolic acid; variant nnLuz_v4

T1 sequence (A0A3G9JYH7 whole entry I3S/N4T/F11L/I63T/T99P/T192S/A199P, the tested form may be a part): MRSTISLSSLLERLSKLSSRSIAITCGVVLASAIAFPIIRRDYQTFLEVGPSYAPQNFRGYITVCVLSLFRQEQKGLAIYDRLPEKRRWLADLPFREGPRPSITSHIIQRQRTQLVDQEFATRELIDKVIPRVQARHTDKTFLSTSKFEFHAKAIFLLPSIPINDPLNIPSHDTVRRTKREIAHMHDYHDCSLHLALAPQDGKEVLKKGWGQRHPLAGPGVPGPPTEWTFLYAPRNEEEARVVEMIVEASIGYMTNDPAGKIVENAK

O=c1oc(/C=C/c2ccc(O)c(O)c2)cc(O)c1O [Fln, fungal luciferin]
KM: Yeast strains expressing nnLuz_wt/v4–HiBIT fusions were inoculated into YPD medium
